Reference: the Kinase Knowledgebase extract (Sharma et al. 2016)

Columns and labels:
MAPK14 (Balb/c mice) = assay: Inhibition of TNF-alpha Release in Balb/c Mice; details: dose or concentration not given here
MAPK14 (human) = MAPK14 (human) (UniProt Q16539); assay: Inhibition of TNF-alpha Release from PBMC
MAPK14 (human), sequence (Q16539 whole entry, looked up): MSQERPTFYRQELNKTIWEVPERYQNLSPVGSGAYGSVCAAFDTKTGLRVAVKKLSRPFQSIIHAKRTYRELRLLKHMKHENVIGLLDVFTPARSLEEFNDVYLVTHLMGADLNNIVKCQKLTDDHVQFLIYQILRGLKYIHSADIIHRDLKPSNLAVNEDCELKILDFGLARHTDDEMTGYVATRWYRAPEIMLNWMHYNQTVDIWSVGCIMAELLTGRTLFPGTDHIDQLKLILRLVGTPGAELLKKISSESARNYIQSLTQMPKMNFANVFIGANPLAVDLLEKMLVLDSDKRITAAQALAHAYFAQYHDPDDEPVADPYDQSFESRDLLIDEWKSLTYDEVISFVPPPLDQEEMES

| SMILES | inhibition (MAPK14 (Balb/c mice)) [%] | IC50 (MAPK14 (human)) [nM] |
| --- | --- | --- |
| C[C@H](Nc1nccc(-c2c(-c3ccccc3)nc3nc(N)ccn23)n1)c1ccccc1 | 100 | 0.4 |
| COc1nccc(-c2c(-c3ccccc3)nc3nc(N)ccn23)n1 | 87 | – |
| Nc1ccn2c(-c3ccncn3)c(-c3cccc(C(F)(F)F)c3)nc2n1 | 85 | 278 |
| Nc1ccn2c(-c3ccnc4ccccc34)c(-c3ccc(F)cc3)nc2n1 | 26 | 333 |
| Nc1ccn2c(-c3ccnc(NCc4ccccc4)c3)c(-c3ccc(F)cc3)nc2n1 | 42 | – |
| Nc1ccn2c(-c3ccnc(N4CCCCC4)n3)c(-c3ccccc3)nc2n1 | 63 | 8 |
| CS(=O)(=O)c1nccc(-c2c(-c3cccc(C(F)(F)F)c3)nc3nc(N)ccn23)n1 | 10 | 520 |
| CSc1nccc(-c2c(-c3cccc(F)c3)nc3nc(N)ccn23)n1 | 51 | 10 |
| C[C@H](Nc1nccc(-c2c(-c3ccc(F)cc3)nc3nc(N)ccn23)n1)C1CCCCC1 | 74 | 1 |
| Nc1ccn2c(-c3ccncc3)c(-c3cccc(C(F)(F)F)c3)nc2n1 | 99 | 35 |
| Nc1ccn2c(-c3ccncn3)c(-c3ccccc3)nc2n1 | 73 | – |
| COc1ccc(CNc2nccc(-c3c(-c4ccccc4)nc4nc(N)ccn34)n2)cc1 | – | 14 |
| Nc1ccn2c(-c3ccnc(NCc4ccccc4)c3)c(-c3cccc(C(F)(F)F)c3)nc2n1 | 19 | 4 |
| C[C@H](Nc1cc(-c2c(-c3ccc(F)cc3)nc3nc(N)ccn23)ccn1)c1ccccc1 | 97 | – |
| Nc1ccn2c(-c3ccncn3)c(-c3ccc(F)cc3)nc2n1 | 91 | 199 |
| Nc1ccn2c(-c3ccncc3)c(-c3ccccc3)nc2n1 | 100 | 55 |
| Nc1ccn2c(-c3ccncc3)c(-c3ccc(F)c(Cl)c3)nc2n1 | 100 | 21 |
| Nc1ccn2c(-c3ccncc3)c(-c3cccc(Cl)c3)nc2n1 | 47 | 162 |
| CSc1nccc(-c2c(-c3ccc(F)cc3)nc3nc(N)ccn23)n1 | 68 | 37 |
| C[C@H](Nc1nccc(-c2c(-c3cccc(C(F)(F)F)c3)nc3nc(N)ccn23)n1)c1ccccc1 | 97 | 0.5 |
| CSc1nccc(-c2c(-c3ccccc3)nc3nc(N)ccn23)n1 | 23 | – |
| CS(=O)(=O)c1nccc(-c2c(-c3ccccc3)nc3nc(N)ccn23)n1 | – | 3410 |
| Nc1ccn2c(-c3ccncc3)c(-c3ccc(F)cc3)nc2n1 | 100 | 49 |
| CSc1nccc(-c2c(-c3cccc(C(F)(F)F)c3)nc3nc(N)ccn23)n1 | 38 | 27 |
| Nc1ccn2c(-c3ccncc3)c(-c3cccc(F)c3)nc2n1 | 100 | 55 |
